The source of these data is patent US20180208605A1, “Substituted Aza Compounds as IRAK-4 Inhibitors” (AURIGENE DISCOVERY TECHNOLOGIES LIMITED, priority 2015, published 2018).

Broadly, the inhibition is the relative decrease from the control value, in per cent.

This test concerns the target T1, recombinant IRAK-4 kinase (Homo sapiens, UniProt Q9NWZ3).
T1 construct: purchased Millipore, USA
T1 sequence (Q9NWZ3 1-460): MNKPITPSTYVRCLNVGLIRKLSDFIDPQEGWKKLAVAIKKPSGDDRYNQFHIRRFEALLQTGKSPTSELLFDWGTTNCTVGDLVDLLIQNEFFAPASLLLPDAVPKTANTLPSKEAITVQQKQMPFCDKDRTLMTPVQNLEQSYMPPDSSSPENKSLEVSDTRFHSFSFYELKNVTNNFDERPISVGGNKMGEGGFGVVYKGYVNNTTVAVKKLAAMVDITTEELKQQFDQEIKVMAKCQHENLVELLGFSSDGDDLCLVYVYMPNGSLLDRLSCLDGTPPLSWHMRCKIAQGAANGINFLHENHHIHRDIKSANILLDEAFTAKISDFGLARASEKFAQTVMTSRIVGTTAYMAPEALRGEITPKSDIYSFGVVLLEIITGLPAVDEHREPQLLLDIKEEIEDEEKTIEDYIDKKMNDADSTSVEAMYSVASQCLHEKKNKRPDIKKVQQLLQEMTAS
The test is described as follows: IRAK-4 Biochemical Assay (TR-FRET, percent inhibition). The conditions noted are these: TR-FRET, 20 μM ATP, 100 nM Biotin Histone H3; for inhibition at 0.1 µM: read-out: % inhibition of IRAK-4 @0.1 μM, compound at 0.1 μM; for inhibition at 1 µM: read-out: % inhibition of IRAK-4 @ 1 μM, compound at 1 μM. On the procedure: Compounds were tested for their potential to inhibit IRAK-4 enzyme in a TR-FRET assay using recombinant IRAK-4 kinase from Millipore, USA. The assay buffer was 50 mM Tris-HCl pH 7.5, 20 mM MgCl2, 1 mM EGTA, 2 mM DTT, 3 mM MnCl2 and 0.01% Tween 20.5 ng of IRAK-4 kinase was used for the assay. After pre-incubation of enzyme with test compound for 30 minutes at room temperature, a substrate mixture containing 100 nM Biotin Histone H3 (Millipore, USA) and 20 μM ATP (Sigma, USA) was added and the reaction was incubated for 30 min. Post incubation, the reaction was stopped by the addition of stop mix containing 40 mM EDTA, 1 nM of Europium-Anti-Phospho-Histone H3 (Ser10) antibody (Perkin Elmer, USA) and 20 nM SureLight Allophycocyanin-Streptavidin (Perkin Elmer, USA). The fluorescence emission at 615 nm and 665 nm were measured at an excitation of 340 nm and the percent inhibition was estimated from the ratio of the fluorescence intensities [(F665/F615)×10000].
In general terms: Time-resolved FRET reads energy transfer from a long-lived donor to a nearby acceptor.

Structures can show the parent of a compound that is named as a salt.

`COC(=O)C1CN(c2cccc(C(=O)Nc3cc4sc(N5CCOCC5)nc4nc3N3CCCCC3)n2)C(=O)N1` (stereo not shown) [Example 48, methyl 1-(6-((2-morpholino-5-(piperidin-1-yl)thiazolo[4,5-b]pyridin-6-yl)carbamoyl)pyridin-2-yl)-2-oxoimidazolidine-4-carboxylate]: the inhibition at 0.1 µM stood at 96% and the inhibition at 1 µM turned out to be 100%.

Consider `NCC(=O)O[C@H]1CCN(c2cncc(C(=O)Nc3cc4sc(N5CCOCC5)nc4nc3N3CCCCC3)n2)C1` [Example 65, (S)-1-(6-((2-morpholino-5-(piperidin-1-yl)thiazolo[4,5-b]pyridin-6-yl)carbamoyl)pyrazin-2-yl)pyrrolidin-3-yl glycinate], for which the inhibition at 0.1 µM was determined as 92% and the inhibition at 1 µM was 97%.

Regarding `O=C(Nc1cc2sc(N3CCOCC3)nc2nc1N1CCCCC1)c1cccc(N2CCO[C@@H](CO)C2)n1` [Example 33, (R)-6-(2-(hydroxymethyl)morpholino)-N-(2-morpholino-5-(piperidin-1-yl)thiazolo[4,5-b]pyridin-6-yl)picolinamide], the inhibition at 0.1 µM was determined as 95% and the inhibition at 1 µM came out at 97%.

On to `Nc1cc(-c2nc(C(=O)Nc3cc4oc(N5CCOCC5)nc4nc3N3CC[C@@H](O)C3)co2)c(Cl)cn1` [Example 88, (R)-2-(2-amino-5-chloropyridin-4-yl)-N-(5-(3-hydroxypyrrolidin-1-yl)-2-morpholinooxazolo[4,5-b]pyridin-6-yl)oxazole-4-carboxamide], for which the inhibition at 0.1 µM is 15%.

Take `Cc1cc(-c2ncc(C(=O)Nc3cc4sc(N5CCOCC5)nc4nc3N3CCC(O)(CO)CC3)o2)ccn1` [Example 4, N-(5-(4-hydroxy-4-(hydroxymethyl)piperidin-1-yl)-2-morpholinothiazolo[4,5-b]pyridin-6-yl)-2-(2-methylpyridin-4-yl)oxazole-5-carboxamide hydrochloride]: the inhibition at 0.1 µM came to 99% and the inhibition at 1 µM worked out at 99%.

`Cl.O=C(Nc1cc2sc(N3CCOCC3)nc2nc1C1CC1)c1cnn2cccnc12` [Example 106, N-(5-cyclopropyl-2-morpholinothiazolo[4,5-b]pyridin-6-yl)pyrazolo[1,5-a]pyrimidine-3-carboxamide hydrochloride]: under “compound at 0.1 μM”, the “% inhibition of IRAK-4 @0.1 μM” value is 93%. Moreover, for the setting “compound at 1 μM”, the “% inhibition of IRAK-4 @ 1 μM” value is recorded as 97%.

With `O=C(Nc1cc2sc(N3CCOCC3)nc2nc1N1CC[C@@H](O)C1)c1cnn2cccnc12` [Example 103, (R)-N-(5-(3-hydroxypyrrolidin-1-yl)-2-morpholinothiazolo[4,5-b]pyridin-6-yl)pyrazolo[1,5-a]pyrimidine-3-carboxamide hydrochloride], the inhibition at 0.1 µM was 92% and the inhibition at 1 µM was determined as 97%.

Turning to `Cc1ccc(C(=O)Nc2cc3sc(N4CCOCC4)nc3nc2N2CCCCC2)nc1-c1ccc(N)nc1` [Example 85, 6′-amino-3-methyl-N-(2-morpholino-5-(piperidin-1-yl)thiazolo[4,5-b]pyridin-6-yl)-[2,3′-bipyridine]-6-carboxamide], the inhibition at 0.1 µM was found to be 101% and the inhibition at 1 µM worked out at 100%.

Consider `O=C(Nc1cc2sc(N3CCOCC3)nc2nc1N1CCC[C@@H](O)C1)c1cccc(N2CCCCC2)n1` [Example 40, (R)-N-(5-(3-hydroxypiperidin-1-yl)-2-morpholinothiazolo[4,5-b]pyridin-6-yl)-6-(piperidin-1-yl)picolinamide], for which the inhibition at 0.1 µM came to 96% and the inhibition at 1 µM came to 99%.

Take `Cc1cc(-c2ccc(C(=O)Nc3cc4oc(N5CCOCC5)nc4nc3N3CC[C@@H](O)C3)o2)ccn1` [Example 91, (R)-N-(5-(3-hydroxypyrrolidin-1-yl)-2-morpholinooxazolo[4,5-b]pyridin-6-yl)-5-(2-methylpyridin-4-yl)furan-2-carboxamide hydrochloride]: the inhibition at 0.1 µM turned out to be 45% and the inhibition at 1 µM was found to be 92%.

As for `NCc1cn(-c2cccc(C(=O)Nc3cc4sc(N5CCOCC5)nc4nc3N3CCCCC3)n2)cn1` [Example 70, 6-(4-(aminomethyl)-1H-imidazol-1-yl)-N-(2-morpholino-5-(piperidin-1-yl)thiazolo[4,5-b]pyridin-6-yl)picolinamide 2,2,2-trifluoroacetate], the inhibition at 0.1 µM stood at 98% and the inhibition at 1 µM is 99%.

Take `O=C(Nc1cc2sc(N3CCOCC3)nc2nc1N1CCCCC1)c1cccc(N2CC(C(=O)O)NC2=O)n1` (stereo not shown) [Example 49, 1-(6-((2-morpholino-5-(piperidin-1-yl)thiazolo[4,5-b]pyridin-6-yl)carbamoyl)pyridin-2-yl)-2-oxoimidazolidine-4-carboxylic acid]: the inhibition at 0.1 µM turned out to be 79% and the inhibition at 1 µM is 96%.

Consider `Cc1cc(-c2nc(C(=O)Nc3cc4sc(N5CCN(C(=O)CO)CC5)nc4nc3N3CCCCC3)co2)ccn1` [Example 10, N-(2-(4-(2-hydroxyacetyl)piperazin-1-yl)-5-(piperidin-1-yl)thiazolo[4,5-b]pyridin-6-yl)-2-(2-methylpyridin-4-yl)oxazole-4-carboxamide hydrochloride], for which the inhibition at 0.1 µM came to 100% and the inhibition at 1 µM was found to be 100%.

For the compound `O=C(Nc1cc2sc(N3CCOCC3)nc2nc1N1CCCCC1)c1cncc(N2CCC(O)C2)n1` (stereo not shown) [Example 54, 6-(3-hydroxypyrrolidin-1-yl)-N-(2-morpholino-5-(piperidin-1-yl)thiazolo[4,5-b]pyridin-6-yl)pyrazine-2-carboxamide hydrochloride], the inhibition at 0.1 µM turned out to be 93% and the inhibition at 1 µM was found to be 97%.

Consider `NCC(=O)OC1CCN(c2cccc(C(=O)Nc3cc4sc(N5CCOCC5)nc4nc3N3CCOCC3)n2)C1` (stereo not shown) [Example 79, 1-(6-((2,5-dimorpholinothiazolo[4,5-b]pyridin-6-yl)carbamoyl)pyridin-2-yl)pyrrolidin-3-yl glycinate], for which the inhibition at 0.1 µM amounted to 70% and the inhibition at 1 µM stood at 96%.

For `O=C(Nc1cc2sc(N3CCOCC3)nc2nc1N1CCCCC1)c1cncc(N2CC[C@H](O)C2)n1` [Example 63, (S)-6-(3-hydroxypyrrolidin-1-yl)-N-(2-morpholino-5-(piperidin-1-yl)thiazolo[4,5-b]pyridin-6-yl)pyrazine-2-carboxamide], the inhibition at 0.1 µM came out at 95% and the inhibition at 1 µM was 95%.

Regarding `Cc1cc(-c2ccc(C(=O)Nc3cc4sc(N5CCOCC5)nc4nc3N3CCC(O)(CO)CC3)o2)ccn1` [Example 2, N-(5-(4-hydroxy-4-(hydroxymethyl)piperidin-1-yl)-2-morpholinothiazolo[4,5-b]pyridin-6-yl)-5-(2-methylpyridin-4-yl)furan-2-carboxamide hydrochloride], the inhibition at 0.1 µM turned out to be 98% and the inhibition at 1 µM came to 99%.

For the compound `Cc1ccc(-c2nc3nc(N4CCOCC4)sc3cc2NC(=O)c2cnn3cccnc23)nc1` [Example 20, N-(5-(5-methylpyridin-2-yl)-2-morpholinothiazolo[4,5-b]pyridin-6-yl)pyrazolo[1,5-a]pyrimidine-3-carboxamide], the inhibition at 0.1 µM came to 97% and the inhibition at 1 µM is 98%.

With `O=C(Nc1cc2sc(N3CCOCC3)nc2nc1N1CCCCC1)c1cc(N2CC[C@H](O)C2)ccn1` [Example 68, (S)-4-(3-hydroxypyrrolidin-1-yl)-N-(2-morpholino-5-(piperidin-1-yl)thiazolo[4,5-b]pyridin-6-yl)picolinamide], the inhibition at 0.1 µM is 23% and the inhibition at 1 µM is 38%.

For `COc1ccc(-c2nc(C(=O)Nc3cc4sc(N5CCOCC5)nc4nc3N3CCCCC3)co2)nc1` [Example 74, 2-(5-methoxypyridin-2-yl)-N-(2-morpholino-5-(piperidin-1-yl)thiazolo[4,5-b]pyridin-6-yl)oxazole-4-carboxamide], the inhibition at 0.1 µM is 89% and the inhibition at 1 µM was 95%.

On to `O=C(Nc1cc2sc(N3CCOCC3)nc2nc1C1CC1)c1cnn2ccc(N3CCC[C@H](O)C3)nc12` [Example 100, (S)-N-(5-cyclopropyl-2-morpholinothiazolo[4,5-b]pyridin-6-yl)-5-(3-hydroxypiperidin-1-yl)pyrazolo[1,5-a]pyrimidine-3-carboxamide], for which the inhibition at 0.1 µM is 96% and the inhibition at 1 µM is 99%.

On to `Cc1ccc(-c2nc3nc(N4CCOCC4)oc3cc2NC(=O)c2coc(-c3ccnc(C)c3)n2)nc1` [Example 14, N-(5-(5-methylpyridin-2-yl)-2-morpholinooxazolo[4,5-b]pyridin-6-yl)-2-(2-methylpyridin-4-yl)oxazole-4-carboxamide], for which the inhibition at 0.1 µM stood at 99% and the inhibition at 1 µM worked out at 100%.
